Results from article PMC4717260, “2-(2,4-Dioxy-1,2,3,4-Tetrahydropyrimidin-1-yl)-N-(4-Phenoxyphenyl)-Acetamides as a Novel Class of Cytomegalovirus Replication Inhibitors” (Acta Naturae, 2015).
Like-named read-outs stand apart in the source and are kept apart here. Blank lines part the entries; values can stand above or below the molecule they belong to.

Experiments:
[1] = tested on: CMV (AD-169 and Davis strains); experiment: Anti-CMV activity in HEL cell culture; type: cell-based, human cytomegalovirus; settings: read-out: EC50, inhibition of CMV replication
[2] = molecular target: thymidine kinase deficient VZV mutant strain (07-1); experiment: Anti-VZV activity (thymidine kinase deficient mutant strain 07-1); type: cell-based, varicella zoster virus
VZV (Oka strain) = experiment: microbe, parasite or virus in culture; type: cell-based, varicella zoster virus; settings: read-out: EC50, VZV replication (Oka strain)

melting point: 226 to 228 °C
SMILES: C#CCn1ccc(=O)n(CC(=O)Nc2ccc(Oc3ccccc3)cc2)c1=O

melting point: 193 to 194 °C
SMILES: Cc1ccc(Cn2ccc(=O)n(CC(=O)Nc3ccc(Oc4ccccc4)cc3)c2=O)cc1

melting point: 184 to 185 °C
SMILES: O=C(Cn1c(=O)ccn(CC=Cc2ccccc2)c1=O)Nc1ccc(Oc2ccccc2)cc1

melting point: 154 to 155 °C
SMILES: O=C(Cn1c(=O)ccn(CCOc2ccccc2)c1=O)Nc1ccc(Oc2ccccc2)cc1

Second part, the molecule before the results:

SMILES: O=C(Cn1c(=O)ccn(Cc2ccccc2)c1=O)Nc1ccc(Oc2ccccc2)cc1 [Compound 4, 2-(3-Benzyl-2,6-dioxo-3,6-dihydropyrimidin-1(2H)-yl)-N-(4-phenoxyphenyl)acetamides]
EC50 ([1]; one range printed for both compounds and both strains): 3.06 to 8.9 µM
EC50 ([2]; strain 07-1, resistant to acyclovir and brivudine, read-out: EC50, thymidine kinase deficient VZV mutant strain (07-1)): 6.68 µM
EC50 (VZV (Oka strain); HEL cell culture, Oka strain): 8.18 µM

SMILES: Cc1cc(C)cc(Cn2ccc(=O)n(CC(=O)Nc3ccc(Oc4ccccc4)cc3)c2=O)c1 [Compound 6, 2-[3-(3,5-Dimethylbenzyl)-2,6-dioxo-3,6-dihydropyrimidin-1(2H)-yl]-N-(4-phenoxyphenyl)acetamide]
EC50 ([1]; Human betaherpesvirus 5, AD169, one range printed for both compounds and both strains): 3.06 to 8.9 µM
EC50 ([2]; Human alphaherpesvirus 3, read-out: EC50, thymidine kinase deficient VZV mutant strain (07-1)): 16.1 µM
EC50 (VZV (Oka strain); Human alphaherpesvirus 3, HEL): 17 µM
melting point: 99 to 101 °C

SMILES: O=c1[nH]c(=O)n([C@H]2C[C@H](O)[C@@H](CO)O2)cc1/C=C/Br [brivudine, reference compound]
EC50 (VZV (Oka strain); Human alphaherpesvirus 3, HEL): 0.026 µM
